Reference: ChEMBL document CHEMBL5614409, “Discovery of potent HIV-1 NNRTIs by CuAAC click-chemistry-based miniaturized synthesis, rapid screening and structure optimization” (Eur J Med Chem, 2024)
≈ marks a conversion by molar mass, not a printed value.

Columns and labels:
[1] = molecular target: Human immunodeficiency virus type 1 reverse transcriptase (Human immunodeficiency virus 1) (UniProt Q72547); assay: Inhibition of HIV-1 reverse transcriptase incubated for 2 hrs in presence of template and viral nucleotides by ELISA relative to control; set-up: concentration or dose not given beside the values; conditions: concentration not given here
[2] = Cytotoxicity against human MT4 cells assessed as reduction in cell viability incubated for 5 days by MTT method; format: toxicity, cell-based; conditions: time 5 day
[3] = system: Human immunodeficiency virus 1; assay: Antiviral activity against HIV1 IIIB harboring L100I mutant infected in MT4 cells assessed as reduction in virus induced cytopathic effect incubated for 5 days by MTT method; format: functional, organism-based; conditions: Human immunodeficiency virus 1, IIIB, MT4, 120 h
[4] = system: Human immunodeficiency virus 1; assay: Antiviral activity against HIV1 IIIB harboring F227L/V106A double mutant infected in MT4 cells assessed as reduction in virus induced cytopathic effect incubated for 5 days by MTT method; format: functional, organism-based; conditions: Human immunodeficiency virus 1, IIIB, MT4, 120 h
[5] = system: Human immunodeficiency virus 1; assay: Antiviral activity against HIV1 IIIB harboring Y188L mutant infected in MT4 cells assessed as reduction in virus induced cytopathic effect incubated for 5 days by MTT method; format: functional, organism-based; conditions: Human immunodeficiency virus 1, IIIB, MT4, 120 h
[6] = molecular target: Human immunodeficiency virus type 1 reverse transcriptase (Human immunodeficiency virus 1, UniProt Q72547); assay: Inhibition of HIV-1 reverse transcriptase assessed as reduction in biotin-dUTP incorporation incubated for 2 hrs in presence of template and viral nucleotides by ELISA
[7] = system: Human immunodeficiency virus 1; assay: Antiviral activity against HIV1 IIIB harboring K103 N mutant infected in MT4 cells assessed as reduction in virus induced cytopathic effect incubated for 5 days by MTT method; format: functional, organism-based; conditions: Human immunodeficiency virus 1, IIIB, MT4, 120 h
[8] = system: Human immunodeficiency virus 1; assay: Antiviral activity against HIV1 IIIB harboring RES056 mutant infected in MT4 cells assessed as reduction in virus induced cytopathic effect incubated for 5 days by MTT method; format: functional, organism-based; conditions: Human immunodeficiency virus 1, IIIB, MT4, 120 h
[9] = system: Human immunodeficiency virus 1; assay: Antiviral activity against HIV1 IIIB infected in MT4 cells assessed as reduction in virus induced cytopathic effect incubated for 5 days by MTT method; format: functional, organism-based; conditions: Human immunodeficiency virus 1, IIIB, MT4, 120 h
[10] = Selectivity index, ratio of CC50 for human MT4 cells to EC50 for antiviral activity against HIV1 IIIB infected in MT4 cells; format: toxicity, cell-based; conditions: read-out: Ratio CC50/EC50
[11] = system: Human immunodeficiency virus 1; assay: Antiviral activity against HIV1 IIIB harboring Y181C mutant infected in MT4 cells assessed as reduction in virus induced cytopathic effect incubated for 5 days by MTT method; format: functional, organism-based; conditions: Human immunodeficiency virus 1, IIIB, MT4, 120 h
[12] = system: Human immunodeficiency virus 1; assay: Antiviral activity against HIV1 IIIB harboring E138K mutant infected in MT4 cells assessed as reduction in virus induced cytopathic effect incubated for 5 days by MTT method; format: functional, organism-based; conditions: Human immunodeficiency virus 1, IIIB, MT4, 120 h
[13] = system: Human immunodeficiency virus 1; assay: Antiviral activity against HIV1 IIIB harboring Y188L mutant infected in MT4 cells assessed as fold increase in reduction of virus induced cytopathic effect incubated for 5 days by MTT method relative to A6N36; format: functional; conditions: time 5 day
[14] = Aqueous solubility of compound at pH 7.4 incubated for 24 hrs under shaking condition by HPLC method; format: physicochemical; conditions: buffer
[15] = Aqueous solubility of compound at pH 2 incubated for 24 hrs under shaking condition by HPLC method; format: physicochemical; conditions: buffer
[16] = Aqueous solubility of compound at pH 7 incubated for 24 hrs under shaking condition by HPLC method; format: physicochemical; conditions: buffer

| SMILES | inhibition [1] | CC50 at 120 h [2] | EC50 [3] | EC50 [4] | EC50 [5] | IC50 [6] | EC50 [7] | EC50 [8] | EC50 [9] | selectivity ratio [10] | EC50 [11] | EC50 [12] | fold change (FC) [13] | solubility thermodynamic at 24 h [14] | solubility thermodynamic at 24 h [15] | solubility thermodynamic at 24 h [16] |
| --- | --- | --- | --- | --- | --- | --- | --- | --- | --- | --- | --- | --- | --- | --- | --- | --- |
| Cc1cc(C#N)cc(C)c1Oc1ccnc(NC2CCN(Cc3cn(Cc4ccc(B(O)O)cc4)nn3)CC2)n1 | 89.8% | – | – | – | – | – | – | – | – | – | – | – | – | – | – | – |
| Cc1cc(/C=C/C#N)cc(C)c1Oc1ccnc(NC2CCN(Cc3cn(CC(=O)N4CCOCC4)nn3)CC2)n1 | 89.4% | 30.5 µM | 61 nM | 664 nM | 1260 nM | 59 nM | 3 nM | 1170 nM | 2 nM | 13300 | 17 nM | 10 nM | – | – | – | – |
| Cc1cc(/C=C/C#N)cc(C)c1Oc1ccnc(NCCc2cn(Cc3ccc(S(N)(=O)=O)cc3)nn2)n1 | 69.2% | – | – | – | – | – | – | – | – | – | – | – | – | – | – | – |
| Cc1cc(C#N)cc(C)c1Oc1ccnc(NCCc2cn(Cc3ccc(Cl)cc3)nn2)n1 | 51.3% | – | – | – | – | – | – | – | – | – | – | – | – | – | – | – |
| COC(=O)CCCn1cc(CN2CCC(Nc3nccc(Oc4c(C)cc(C#N)cc4C)n3)CC2)nn1 | 90.7% | 21.3 µM | – | – | – | 56 nM | – | – | 10 nM | 2060 | – | – | – | – | – | – |
| Cc1cc(C#N)cc(C)c1Oc1ccnc(NC2CCN(Cc3cn(CC(=O)Nc4ccc(S(C)(=O)=O)cc4)nn3)CC2)n1 | 93.8% | 12.2 µM | 228 nM | 2880 nM | 260 nM | – | 16 nM | 3410 nM | 5 nM | 2690 | 34 nM | 31 nM | – | – | – | – |
| Cc1cc(/C=C/C#N)cc(C)c1Oc1nc(NC2CCN(Cc3cn(CC(=O)NC4CC4)nn3)CC2)nc2sccc12 | – | 16.9 µM | 6 nM | 156 nM | 38 nM | 214 nM | – | 84 nM | 5 nM | 3520 | 16 nM | 22 nM | 3 | – | – | – |
| CCOC(=O)Cn1cc(CN2CCC(Nc3nccc(Oc4c(C)cc(/C=C/C#N)cc4C)n3)CC2)nn1 | 90.9% | 18.8 µM | – | – | – | 54 nM | – | – | 11 nM | 1740 | – | – | – | – | – | – |
| COC(=O)CCCn1cc(CN2CCC(Nc3nccc(Oc4c(C)cc(/C=C/C#N)cc4C)n3)CC2)nn1 | 90.7% | 16.1 µM | 28 nM | 830 nM | 1090 nM | 73 nM | 8 nM | 2360 nM | 6 nM | 2680 | 28 nM | 36 nM | – | – | – | – |
| Cc1cc(C#N)cc(C)c1Oc1ccnc(NC2CCN(Cc3cn(CC(=O)NC4CC4)nn3)CC2)n1 | 93.4% | 31.3 µM | 150 nM | 3270 nM | 399 nM | 62 nM | 19 nM | 2630 nM | 3 nM | 12500 | 30 nM | 28 nM | – | – | – | – |
| Cc1cc(C#N)cc(C)c1Oc1ccnc(NC2CCN(Cc3cn(Cc4ccccc4C#N)nn3)CC2)n1 | 91.3% | 4.24 µM | 231 nM | 1040 nM | 366 nM | – | 15 nM | > 4240 nM | 2 nM | 2020 | 27 nM | 27 nM | – | – | – | – |
| Cc1cc(/C=C/C#N)cc(C)c1Oc1ccnc(NC2CCN(Cc3cn(CC(=O)NC4CC4)nn3)CC2)n1 | 92.4% | 20.9 µM | 9 nM | 66 nM | 91 nM | 40 nM | – | 85 nM | 2 nM | 14000 | 7 nM | 7 nM | – | 85 µg/mL (≈ 161 µM) | 3190 µg/mL (≈ 6040 µM) | 198 µg/mL (≈ 375 µM) |
| COC(=O)Cn1cc(CCNc2nccc(Oc3c(C)cc(/C=C/C#N)cc3C)n2)nn1 | 65.3% | – | – | – | – | – | – | – | – | – | – | – | – | – | – | – |
| Cc1cc(C#N)cc(C)c1Oc1ccnc(NC2CCN(Cc3cn(Cc4ccc(S(N)(=O)=O)cc4)nn3)CC2)n1 | 89.3% | – | – | – | – | – | – | – | – | – | – | – | – | – | – | – |
| Cc1cc(C#N)cc(C)c1Oc1nc(Nc2ccc(C#N)cc2)nc(N)c1Br [ETRAVIRINE] | 52.3% | > 4.59 µM | 7 nM | – | – | – | 3 nM | 38 nM | – | > 1090 | 12 nM | 4 nM | – | – | – | – |
| Cc1cc(C#N)cc(C)c1Oc1ccnc(NC2CCN(Cc3cn(Cc4ccc(C(N)=O)cc4)nn3)CC2)n1 | 94.1% | 7.69 µM | 50 nM | 1040 nM | 97 nM | 55 nM | 7 nM | > 7690 nM | 2 nM | – | 11 nM | 14 nM | – | – | – | – |
| CCNC(=O)Cn1cc(CN2CCC(Nc3nc(Oc4c(C)cc(/C=C/C#N)cc4C)c4ccsc4n3)CC2)nn1 | – | 19.1 µM | 7 nM | 36 nM | 29 nM | 210 nM | – | 55 nM | 4 nM | 5010 | 12 nM | 17 nM | 3 | 22.6 µg/mL (≈ 39.5 µM) | 659 µg/mL (≈ 1150 µM) | 25.1 µg/mL (≈ 43.9 µM) |
| Cc1ccccc1Cn1cc(CCNc2nccc(Oc3c(C)cc(C#N)cc3C)n2)nn1 | 55% | – | – | – | – | – | – | – | – | – | – | – | – | – | – | – |
| Cc1cc(/C=C/C#N)cc(C)c1Oc1ccnc(NC2CCN(Cc3cn(Cc4ccc(B(O)O)cc4)nn3)CC2)n1 | 92.2% | 4.62 µM | 9 nM | 99 nM | 78 nM | 96 nM | 4 nM | 133 nM | 6 nM | 825 | 11 nM | 19 nM | – | – | – | – |
| Cc1cc(/C=C/C#N)cc(C)c1Oc1nc(NC2CCN(Cc3cn(CC(N)=O)nn3)CC2)nc2ccccc12 | – | 18.1 µM | 17 nM | 499 nM | 81 nM | – | 8 nM | 187 nM | 6 nM | 3300 | 33 nM | 23 nM | – | – | – | – |
| COC(=O)Cn1cc(CN2CCC(Nc3nccc(Oc4c(C)cc(/C=C/C#N)cc4C)n3)CC2)nn1 | 91.7% | 26.2 µM | – | – | – | 52 nM | – | – | 36 nM | 732 | – | – | – | – | – | – |
